Data published in patent publication US20260053811A1, “METHODS OF TREATING HYPERTENSION IN OBESE SUBJECTS” (Mineralys Therapeutics, Inc., priority 2022, published 2026).

Tested on: hypertensive subjects
Assay: 24-hour ambulatory blood pressure monitoring (ABPM), incl. nighttime dip
Assay type: in vivo, human
Procedure: Ambulatory blood pressure monitoring was accomplished with an ambulatory blood pressure monitoring device that consists of a blood pressure cuff worn on a subject's arm attached to a small recording device that is typically attached to the subject's belt or waistband.
The ABPM device is worn for 24 hours. Throughout that period, the device records the subject's blood pressure at regular intervals, during the subject's routine daily activities and while they are sleeping. The ABPM thus provides a complete record of the subject's blood pressure over a 24-hour period.
24-hour ABPM was measured in the clinic at baseline and Study Week 7. If, for any reason, the ABPM procedure was deemed a failure at the end of Study Week 7, it may have been repeated at Study Week 8 and therefore no imputation was employed regardless of use of rescue medications. Additionally, ABPM was also collected at the end of Study Week 4 in Part 2. If a repeat test was performed, it supersedes the original test results for that visit.
Specific derived variables based on ABPM measurements include mean 24-hour, mean Daytime, and mean Nighttime of SBP, DBP, and heart rate.
Change from baseline to Week 7 in 24-hour mean SBP (and DBP) based on ABPM will be analyzed using an ANCOVA with a term for treatment group and a baseline mean 24-hour value as a covariate.
The nighttime dip is defined as
100%×(mean daytime SBP−mean nighttime SBP)/mean daytime SBP
It is expressed as a percentage and is summarized by treatment group and visit using descriptive statistics. In addition, the number and percentage of subjects with nighttime dip in each of the dipper categories (Bloomfield & Park, 2015) is presented by treatment group and visit. The categories are: • (a) <10% • (b) 10-20% inclusive • (c) >20%
Secondary endpoints of this study were: • (a) Change in 24-hour ambulatory blood pressure monitoring (ABPM) parameters (systolic and diastolic) from baseline to the end of Study Week 7. • (b) Change in office-measured SBP from baseline to the end of Study Weeks 1, 2, 3, 4, 5, 6, and 7. • (c) Change in office-measured diastolic blood pressure (DBP) from baseline to the end of Study Weeks 1, 2, 3, 4, 5, 6, 7, and 8. • (d) Proportion of subjects who achieve office-measured BP of ≤130/80 mm Hg by the end of Study Week 8.

[1] = 50 mg QD, End of Treatment, Part 1, FAS post-hoc
[2] = 100 mg QD Part 2, End of Treatment, FAS post-hoc
[3] = 100 mg QD, End of Treatment, Part 1, FAS post-hoc

Compound: CC(=O)N[C@H]1CC[C@H](NC(=O)CN2CCN(c3nncc(-c4ccc(C)cc4)n3)CC2)CC1 [Compound A HBr]
- LSM Δ with Placebo, 24-hr Mean MAP (ABPM, ANCOVA) [1]: −3.48 mmHg
- LSM Δ with Placebo, 24-hr SBP (ABPM, ANCOVA) [1]: −3.85 mmHg
- LSM Δ with Placebo, Daytime Mean DBP (ABPM, ANCOVA) [1]: −4.18 mmHg
- LSM Δ with Placebo, Daytime Mean SBP (ABPM, ANCOVA) [1]: −6.85 mmHg
- LSM Δ with Placebo, Mean Central DBP (ABPM, ANCOVA) [1]: −2.58 mmHg
- LSM Δ with Placebo, Mean Central Mean BP (ABPM, ANCOVA) [1]: −4.11 mmHg
- LSM Δ with Placebo, Mean Central SBP (ABPM, ANCOVA) [1]: −5.46 mmHg
- LSM Δ with Placebo, Nighttime Mean DBP (ABPM, ANCOVA) [1]: 0.15 mmHg
- LSM Δ with Placebo, Nighttime Mean SBP (ABPM, ANCOVA) [1]: 2.37 mmHg
- 24-hr Mean DBP (ABPM), Mean (SD) (50 mg QD, EoT, Part 1, FAS): 77.75 (9.33) mmHg
- 24-hr Mean MAP (ABPM), Mean (SD) (50 mg QD, EoT, Part 1, FAS): 104.55 (11.74) mmHg
- 24-hr Mean SBP (ABPM), Mean (SD) (50 mg QD, EoT, Part 1, FAS): 131.36 (15.58) mmHg
- Daytime Mean DBP (ABPM), Mean (SD) (50 mg QD, EoT, Part 1, FAS): 79.50 (9.08) mmHg
- Daytime Mean SBP (ABPM), Mean (SD) (50 mg QD, EoT, Part 1, FAS): 132.32 (14.36) mmHg
- Nighttime Mean DBP (ABPM), Mean (SD) (50 mg QD, EoT, Part 1, FAS): 74.25 (13.08) mmHg
- Nighttime Mean SBP (ABPM), Mean (SD) (50 mg QD, EoT, Part 1, FAS): 129.54 (21.68) mmHg
- Subjects with nighttime dip 10-20% in 24-hour systolic ABPM (50 mg QD, EoT, Part 1, FAS): 6 (21.4) n (%)
- Subjects with nighttime dip <10% in 24-hour systolic ABPM (50 mg QD, EoT, Part 1, FAS): 22 (78.6) n (%)
- Subjects with nighttime dip >20% in 24-hour systolic ABPM (50 mg QD, EoT, Part 1, FAS): 0 n (%)
- 24-hr Mean DBP (ABPM) CFB to EoT, Mean (SD) (50 mg QD, Part 1, FAS): −3.00 (8.52) mmHg
- 24-hr Mean MAP (ABPM) CFB to EoT, Mean (SD) (50 mg QD, Part 1, FAS): −2.39 (11.80) mmHg
- 24-hr Mean SBP (ABPM) CFB to EoT, Mean (SD) (50 mg QD, Part 1, FAS): −1.79 (15.82) mmHg
- Daytime Mean DBP (ABPM) CFB to EoT, Mean (SD) (50 mg QD, Part 1, FAS): −4.11 (6.81) mmHg
- Daytime Mean SBP (ABPM) CFB to EoT, Mean (SD) (50 mg QD, Part 1, FAS): −4.54 (13.59) mmHg
- Nighttime Mean DBP (ABPM) CFB to EoT, Mean (SD) (50 mg QD, Part 1, FAS): 0.00 (12.34) mmHg
- Nighttime Mean SBP (ABPM) CFB to EoT, Mean (SD) (50 mg QD, Part 1, FAS): 2.44 (22.25) mmHg
- LSM Δ with 100 mg QD Part 1, 24-hr Mean AP (ABPM, ANCOVA) [2]: 3.33 mmHg
- LSM Δ with 100 mg QD Part 1, 24-hr Mean DBP (ABPM, ANCOVA) [2]: 4.26 mmHg
- LSM Δ with 100 mg QD Part 1, 24-hr Mean SBP (ABPM, ANCOVA) [2]: 4.13 mmHg
- LSM Δ with 100 mg QD Part 1, Daytime Mean DBP (ABPM, ANCOVA) [2]: 3.92 mmHg
- LSM Δ with 100 mg QD Part 1, Daytime Mean SBP (ABPM, ANCOVA) [2]: 1.64 mmHg
- LSM Δ with 100 mg QD Part 1, Mean Central DBP (ABPM, ANCOVA) [2]: 4.53 mmHg
- LSM Δ with 100 mg QD Part 1, Mean Central Mean BP (ABPM, ANCOVA) [2]: 3.98 mmHg
- LSM Δ with 100 mg QD Part 1, Mean Central SBP (ABPM, ANCOVA) [2]: 4.68 mmHg
- LSM Δ with 100 mg QD Part 1, Nighttime Mean DBP (ABPM, ANCOVA) [2]: 5.04 mmHg
- LSM Δ with 100 mg QD Part 1, Nighttime Mean SBP (ABPM, ANCOVA) [2]: 8.91 mmHg
- LSM Δ with Placebo, 24-hr DBP (ABPM, ANCOVA) [3]: −5.23 mmHg
- LSM Δ with Placebo, 24-hr Mean MAP (ABPM, ANCOVA) [3]: −5.45 mmHg
- LSM Δ with Placebo, 24-hr SBP (ABPM, ANCOVA) [3]: −5.33 mmHg
- LSM Δ with Placebo, Daytime Mean DBP (ABPM, ANCOVA) [3]: −4.98 mmHg
- LSM Δ with Placebo, Daytime Mean SBP (ABPM, ANCOVA) [3]: −4.12 mmHg
- LSM Δ with Placebo, Mean Central DBP (ABPM, ANCOVA) [3]: −7.01 mmHg
- LSM Δ with Placebo, Mean Central Mean BP (ABPM, ANCOVA) [3]: −7.77 mmHg
- LSM Δ with Placebo, Mean Central SBP (ABPM, ANCOVA) [3]: −7.79 mmHg
- LSM Δ with Placebo, Nighttime Mean DBP (ABPM, ANCOVA) [3]: −5.68 mmHg
- LSM Δ with Placebo, Nighttime Mean SBP (ABPM, ANCOVA) [3]: −7.36 mmHg
- 24-hr Mean DBP (ABPM), Mean (SD) (100 mg QD, EoT, Part 1, FAS): 75.92 (8.42) mmHg
- 24-hr Mean MAP (ABPM), Mean (SD) (100 mg QD, EoT, Part 1, FAS): 105.48 (8.26) mmHg
- 24-hr Mean SBP (ABPM), Mean (SD) (100 mg QD, EoT, Part 1, FAS): 135.04 (11.25) mmHg
- Daytime Mean DBP (ABPM), Mean (SD) (100 mg QD, EoT, Part 1, FAS): 78.79 (9.44) mmHg
- Daytime Mean SBP (ABPM), Mean (SD) (100 mg QD, EoT, Part 1, FAS): 139.42 (11.65) mmHg
- Nighttime Mean DBP (ABPM), Mean (SD) (100 mg QD, EoT, Part 1, FAS): 69.00 (9.04) mmHg
- Nighttime Mean SBP (ABPM), Mean (SD) (100 mg QD, EoT, Part 1, FAS): 124.50 (14.93) mmHg
- Subjects with nighttime dip 10-20% in 24-hour systolic ABPM (100 mg QD, EoT, Part 1, FAS): 11 (45.8) n (%)
- Subjects with nighttime dip <10% in 24-hour systolic ABPM (100 mg QD, EoT, Part 1, FAS): 11 (45.8) n (%)
- Subjects with nighttime dip >20% in 24-hour systolic ABPM (100 mg QD, EoT, Part 1, FAS): 2 (8.3) n (%)
- 24-hr Mean DBP (ABPM), Mean (100 mg QD, EoT, Part 2, FAS): 77.07 mmHg
- 24-hr Mean MAP (ABPM), Mean (100 mg QD, EoT, Part 2, FAS): 104.83 mmHg
- 24-hr Mean SBP (ABPM), Mean (100 mg QD, EoT, Part 2, FAS): 132.59 mmHg
- Daytime Mean DBP (ABPM), Mean (100 mg QD, EoT, Part 2, FAS): 79.41 mmHg
- Daytime Mean SBP (ABPM), Mean (100 mg QD, EoT, Part 2, FAS): 135.22 mmHg
- Nighttime Mean DBP (ABPM), Mean (100 mg QD, EoT, Part 2, FAS): 71.85 mmHg
- Nighttime Mean SBP (ABPM), Mean (100 mg QD, EoT, Part 2, FAS): 126.04 mmHg
- 24-hr Mean DBP (ABPM) CFB to EoT, Mean (SD) (100 mg QD, Part 1, FAS): −5.92 (8.44) mmHg
- 24-hr Mean MAP (ABPM) CFB to EoT, Mean (SD) (100 mg QD, Part 1, FAS): −7.40 (10.04) mmHg
- 24-hr Mean SBP (ABPM) CFB to EoT, Mean (SD) (100 mg QD, Part 1, FAS): −8.88 (11.90) mmHg
- Daytime Mean DBP (ABPM) CFB to EoT, Mean (SD) (100 mg QD, Part 1, FAS): −4.96 (8.74) mmHg
- Daytime Mean SBP (ABPM) CFB to EoT, Mean (SD) (100 mg QD, Part 1, FAS): −7.08 (12.60) mmHg
- Nighttime Mean DBP (ABPM) CFB to EoT, Mean (SD) (100 mg QD, Part 1, FAS): −6.57 (9.97) mmHg
- Nighttime Mean SBP (ABPM) CFB to EoT, Mean (SD) (100 mg QD, Part 1, FAS): −11.48 (13.87) mmHg
- 24-hr Mean DBP (ABPM) CFB to EoT, Mean (100 mg QD, Part 2, FAS): 1.33 mmHg
- 24-hr Mean MAP (ABPM) CFB to EoT, Mean (100 mg QD, Part 2, FAS): 1.81 mmHg
- 24-hr Mean SBP (ABPM) CFB to EoT, Mean (100 mg QD, Part 2, FAS): 2.30 mmHg
- Daytime Mean DBP (ABPM) CFB to EoT, Mean (100 mg QD, Part 2, FAS): 1.67 mmHg
- Daytime Mean SBP (ABPM) CFB to EoT, Mean (100 mg QD, Part 2, FAS): 2.41 mmHg
- Nighttime Mean DBP (ABPM) CFB to EoT, Mean (100 mg QD, Part 2, FAS): 1.04 mmHg
- Nighttime Mean SBP (ABPM) CFB to EoT, Mean (100 mg QD, Part 2, FAS): 1.52 mmHg
- Change in BP, ABPM (night) BPsys, Mean (sem) (100 mg QD, Week 8, FAS): −11.5 (2.5) mmHg
- Proportion of Subjects with Nighttime Dip in 24-hour Systolic Ambulatory Blood Pressure 10-20% (Part 2, 100 mg QD, EoT): (33.3) %
- Proportion of Subjects with Nighttime Dip in 24-hour Systolic Ambulatory Blood Pressure <10% (Part 2, 100 mg QD, EoT): (66.7) %
- Proportion of Subjects with Nighttime Dip in 24-hour Systolic Ambulatory Blood Pressure 10-20% (Part 2, 100 mg QD, Week 4): (24.0) %
- Proportion of Subjects with Nighttime Dip in 24-hour Systolic Ambulatory Blood Pressure <10% (Part 2, 100 mg QD, Week 4): (72.0) %
- Proportion of Subjects with Nighttime Dip in 24-hour Systolic Ambulatory Blood Pressure >20% (Part 2, 100 mg QD, Week 4): (4.0) %
